Test results: patent publication US5549903A, “Microencapsulated composition containing chlorpyrifos or endosulfsan” (priority 1994, dated 1996)

Columns and labels:
honey bees [1] = settings: technical chlorpyrifos, comparison value; cited from earlier work
honey bees [2] = settings: technical chlorpyrifos, comparison value; cited from earlier work; remark: listed apart in the source
rats = settings: technical chlorpyrifos; cited from earlier work
[3] = Stability of unprotected chlorpyrifos to UV/visible light; type: physicochemical; settings: 68 hours
Procedure: Unprotected chlorpyrifos was irradiated by an ultraviolet/visible light lamp for 68 hours. The stability versus the wavelength of the light is summarized as follows: […]

[4] = Stability of endosulfan to irradiation; type: physicochemical; settings: 100 hours at 310±5 nanometers and 475± nanometers
Text: Details of the stability of chlorpyrifos are listed in Example 2.

mice = settings: technical material; cited from earlier work

Structure (SMILES)	LD50 oral (honey bees [1])	LD50 contact (honey bees [2])	LD50 (acute oral) (rats)	Extent of Degradation ([3]; 313 ± 5 nm)	Extent of Degradation ([3]; 365 ± 5 nm)	Extent of Degradation ([3]; 404 ± 5 nm)	Extent of Degradation ([3]; 436 ± 5 nm)	decomposition after irradiation [4]	LD50 (mice)
CCOP(=S)(OCC)Oc1nc(Cl)c(Cl)cc1Cl [chlorpyrifos, O,O-diethyl-O-(3,5,6-trichloro-2-pyridyl)-phosphorathio-ate]	0.25 μg/bee	0.059 μ/bee	168 mg/kg	Total degradation	Low degradation	Low degradation	Medium degradation		
O=S1OCC2C(CO1)C1(Cl)C(Cl)=C(Cl)C2(Cl)C1(Cl)Cl (stereo not drawn) [endosulfan, 6,7,8,9,10-hexachloro-1,5-5a,9a tetryhydro-6,9-methano-2,4,3-benzodioxathipia-3-oxide]								decomposed	30 mg/kg
